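In this assay, cells in 96-well plates receive the compound at five concentrations for 48 hours. Endpoints are linearly interpolated between the surrounding concentrations. GI50 = concentration required for 50% inhibition of growth. TGI denotes the concentration required for complete inhibition of growth.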
Tests used:
Test in all cases: NCI tumour cell line growth inhibition, 48 h
K-562 leukemia = system: K-562 leukemia
SR leukemia = system: SR leukemia
PC-3 prostate = system: PC-3 prostate
786-0 renal = system: 786-0 renal
NCI-H522 lung = system: NCI-H522 lung
T-47D breast = system: T-47D breast
COLO 205 colon = system: COLO 205 colon
SNB-19 CNS = system: SNB-19 CNS
HCT-116 colon = system: HCT-116 colon
OVCAR-5 ovarian = system: OVCAR-5 ovarian
HCT-15 colon = system: HCT-15 colon
HS 578T breast = system: HS 578T breast
RPMI-8226 leukemia = system: RPMI-8226 leukemia
MALME-3M melanoma = system: MALME-3M melanoma
M14 melanoma = system: M14 melanoma
DU-145 prostate = system: DU-145 prostate
MDA-MB-231 breast = system: MDA-MB-231 breast
OVCAR-4 ovarian = system: OVCAR-4 ovarian
HCC-2998 colon = system: HCC-2998 colon
KM12 colon = system: KM12 colon
LOX IMVI melanoma = system: LOX IMVI melanoma
HOP-62 NSCLC = system: HOP-62 NSCLC
SK-MEL-5 melanoma = system: SK-MEL-5 melanoma
SF-268 CNS = system: SF-268 CNS
SK-MEL-28 melanoma = system: SK-MEL-28 melanoma
HOP-92 NSCLC = system: HOP-92 NSCLC
A549 NSCLC = system: A549 NSCLC
NCI-H226 lung = system: NCI-H226 lung
UACC-257 melanoma = system: UACC-257 melanoma
MCF7 breast = system: MCF7 breast
SF-295 CNS = system: SF-295 CNS
IGROV1 ovarian = system: IGROV1 ovarian
NCI/ADR-RES ovarian = system: NCI/ADR-RES ovarian
SNB-75 CNS = system: SNB-75 CNS
SK-MEL-2 melanoma = system: SK-MEL-2 melanoma
UACC-62 melanoma = system: UACC-62 melanoma
SW-620 colon = system: SW-620 colon
MOLT-4 leukemia = system: MOLT-4 leukemia
HT29 colon = system: HT29 colon
OVCAR-8 ovarian = system: OVCAR-8 ovarian
MDA-MB-435 = system: MDA-MB-435
SN12C renal = system: SN12C renal
EKVX NSCLC = system: EKVX NSCLC
HL-60(TB) leukemia = system: HL-60(TB) leukemia
TK-10 renal = system: TK-10 renal
RXF 393 renal = system: RXF 393 renal
SF-539 CNS = system: SF-539 CNS
NCI-H460 lung = system: NCI-H460 lung
A498 renal = system: A498 renal
ACHN renal = system: ACHN renal
SK-OV-3 ovarian = system: SK-OV-3 ovarian
CAKI-1 renal = system: CAKI-1 renal
BT-549 breast = system: BT-549 breast
U251 CNS = system: U251 CNS
OVCAR-3 ovarian = system: OVCAR-3 ovarian
NCI-H23 lung = system: NCI-H23 lung
CCRF-CEM leukemia = system: CCRF-CEM leukemia
UO-31 renal = system: UO-31 renal

## Cc1cc(O)c(C2=NN(c3ccc(S(N)(=O)=O)cc3)C(c3ccc(Cl)cc3)C2)c(C)c1Cl (stereo unspecified)
K-562 leukemia
  GI50: 2.24 µM
  TGI: 11.5 µM
SR leukemia
  GI50: 1.28 µM
  TGI: 5.02 µM
PC-3 prostate
  GI50: 4.44 µM
  TGI: 16.8 µM
786-0 renal
  GI50: 4.97 µM
  TGI: 17.4 µM
NCI-H522 lung
  GI50: 6.24 µM
  TGI: 21.6 µM
T-47D breast
  GI50: 2.93 µM
  TGI: 14.9 µM
COLO 205 colon
  GI50: 1.69 µM
  TGI: 3.31 µM
SNB-19 CNS
  GI50: 12.4 µM
  TGI: 24.9 µM
HCT-116 colon
  GI50: 3.47 µM
  TGI: 12.9 µM
OVCAR-5 ovarian
  GI50: 12.3 µM
  TGI: 24.7 µM
HCT-15 colon
  GI50: 5.48 µM
  TGI: 20.8 µM
HS 578T breast
  GI50: 3.45 µM
  TGI: 20 µM
RPMI-8226 leukemia
  GI50: 3.99 µM
  TGI: 17.8 µM
MALME-3M melanoma
  GI50: 14.8 µM
  TGI: 35.2 µM
M14 melanoma
  GI50: 2.62 µM
  TGI: 10.4 µM
DU-145 prostate
  GI50: 5.6 µM
  TGI: 17.6 µM
MDA-MB-231 breast
  GI50: 2.34 µM
  TGI: 11.8 µM
OVCAR-4 ovarian
  GI50: 7.69 µM
  TGI: 21.2 µM
HCC-2998 colon
  GI50: 6.48 µM
  TGI: 19.1 µM
KM12 colon
  GI50: 2.8 µM
  TGI: 10.6 µM
LOX IMVI melanoma
  GI50: 2.34 µM
  TGI: 6.98 µM
HOP-62 NSCLC
  GI50: 10.4 µM
  TGI: 23.3 µM
SK-MEL-5 melanoma
  GI50: 9.59 µM
  TGI: 21.4 µM
SF-268 CNS
  GI50: 5.76 µM
  TGI: 19.4 µM
SK-MEL-28 melanoma
  GI50: 11.7 µM
  TGI: 23.9 µM
HOP-92 NSCLC
  GI50: 3.74 µM
  TGI: 17.6 µM
A549 NSCLC
  GI50: 5.91 µM
  TGI: 22.5 µM
NCI-H226 lung
  GI50: 10.5 µM
  TGI: 24.1 µM
UACC-257 melanoma
  GI50: 11.9 µM
  TGI: 26.8 µM
MCF7 breast
  GI50: 2.01 µM
  TGI: 10.5 µM
SF-295 CNS
  GI50: 16 µM
  TGI: 31.6 µM
IGROV1 ovarian
  GI50: 6.19 µM
  TGI: 22.3 µM
NCI/ADR-RES ovarian
  GI50: 4.63 µM
  TGI: 17 µM
SNB-75 CNS
  GI50: 10.9 µM
  TGI: 23.7 µM
SK-MEL-2 melanoma
  GI50: 11.9 µM
  TGI: 27.6 µM
UACC-62 melanoma
  GI50: 3.49 µM
  TGI: 15.1 µM
SW-620 colon
  GI50: 3.72 µM
  TGI: 15.2 µM
MOLT-4 leukemia
  GI50: 1.94 µM
  TGI: 7.25 µM
HT29 colon
  GI50: 3.3 µM
  TGI: 11 µM
OVCAR-8 ovarian
  GI50: 5.75 µM
  TGI: 21.6 µM
MDA-MB-435
  GI50: 3.57 µM
  TGI: 14.8 µM
SN12C renal
  GI50: 5.71 µM
  TGI: 19.2 µM
EKVX NSCLC
  GI50: 1.88 µM
  TGI: 13.6 µM
HL-60(TB) leukemia
  GI50: 7.84 µM
  TGI: 20.8 µM
TK-10 renal
  GI50: 4.48 µM
  TGI: 18.8 µM
RXF 393 renal
  GI50: 5.83 µM
  TGI: 21.1 µM
SF-539 CNS
  GI50: 12.3 µM
  TGI: 24.7 µM
NCI-H460 lung
  GI50: 2.53 µM
  TGI: 7.24 µM
A498 renal
  GI50: 6.97 µM
  TGI: 19.3 µM
ACHN renal
  GI50: 3.7 µM
  TGI: 14.4 µM
SK-OV-3 ovarian
  GI50: 7.75 µM
  TGI: 20.6 µM
CAKI-1 renal
  GI50: 4.38 µM
  TGI: 18.2 µM
BT-549 breast
  GI50: 13.1 µM
  TGI: 27.7 µM
U251 CNS
  GI50: 3.34 µM
  TGI: 13.5 µM
OVCAR-3 ovarian
  GI50: 4.21 µM
  TGI: 15.7 µM
NCI-H23 lung
  GI50: 5.82 µM
  TGI: 19.9 µM
CCRF-CEM leukemia
  GI50: 3.64 µM
  TGI: 13.5 µM
UO-31 renal
  GI50: 3.78 µM
  TGI: 19.2 µM
